How the values were obtained:
[1] = system: P. aeruginosa expressing IMP-1, efflux− (MB9799); assay: Efflux: concentration of MBL inhibitor which restores susceptibility to imipenem; type: cell-based, Pseudomonas aeruginosa; conditions: imipenem at 2 μg/mL, in the presence of a class A, C, D serine β-lactamase inhibitor closely related to relebactam
From the text: (§1) The strain background is Pseudomonas aeruginosa PAO1.

[2] = system: P. aeruginosa expressing IMP-1, efflux+ (MB9798); type: cell-based, Pseudomonas aeruginosa; conditions: for P. aeruginosa expressing IMP-1, efflux+ (MB9798) MITC95: imipenem at 2 μg/mL, in the presence of a class A, C, D serine β-lactamase inhibitor closely related to relebactam; for Efflux ratio: ratio MITC95 PA_9798/MITC95 PA_9799
From the text: as §1

[3] = system: Serratia marcescens expressing IMP-1 (CL5741); type: cell-based; conditions: with imipenem 1 μg/ml; 95% inhibition of bacterial growth
Description: (§2) Antibiotic Potentiation Activity: Determination of Synergistic Concentration
(§3) The bacterial strains tested included the clinical strains Escherichia coli expressing NDM-1 (CLB30005, CLB30016), Serratia marcescens expressing IMP-1 (CL5741), and Klebsiella pneumoniae expressing VIM-1 (IHMA599644). Inhibitor activity was measured in the presence and absence of imipenem in a 384-well microplate.
(§4) The clinical strains CLB30016, CL5741 and IHMA599644 were grown on trypticase soy agar containing 5% sheep's blood. The bacteria on agar plates were incubated at 35° C. with humidity overnight. The following day, individual colonies from each clinical strain were picked and resuspended in 5 ml saline to attain an OD600 of […], for CLB30016, CL5741 and IHMA599644, respectively. These were further diluted 1:100 into 1.1×CAMHB and used to inoculate the test wells as described below.
(§5) Imipenem in 10 mM 3-(N-morpholino)propanesulfonic acid (MOPS, pH 7) was stored in single use aliquots at −80° C. […] On the day of the assay, 4 μl of antibiotic was added to 45 ul of bacteria followed by 1 μl of test compound and mixed by pipetting and with an orbital shaker. The concentration of antibiotic used in the assay was 1 μg/ml. Microplates were covered and incubated at 35° C. for 22 hours to 24 hours. At the end of the incubation, absorbance was determined using a spectrophotometer.
(§6) For example, in general, the compounds of Examples 1-379 were determined to restore susceptibility to imipenem for one or more of the test organisms at concentrations of 100 μM or less.

[4] = system: Klebsiella pneumoniae expressing VIM-1 (IHMA599644); type: cell-based; conditions: with imipenem 1 μg/ml; 95% inhibition of bacterial growth
Description: as §2, §3, §4, §5, §6

[5] = system: Escherichia coli expressing NDM-1 (CLB30005, CLB30016); type: cell-based; conditions: with imipenem 1 μg/ml; 95% inhibition of bacterial growth
Description: as §2, §3, §4, §5, §6

VIM-1 = VIM-1 (Pseudomonas aeruginosa (strain ATCC 15692 / DSM 22644 / CIP 104116 / JCM 14847 / LMG 12228 / 1C / PRS 101 / PAO1), UniProt A0A0F7KYQ8); assay: biochemical; conditions: CCF2-FA substrate, 2 hours at 25° C
Description: (§7) Enzyme Activity: Determination of IC50
(§8) The Class B enzyme activities were measured in the presence of the test inhibitor in a fluorescence assay against a commercially available substrate consisting of a cephalosporin core linking 7-hydroxycoumarin to fluorescein (CCF2-FA). […] In a 384-well microplate, the test inhibitor was incubated with the metallo-β-lactamase enzyme and the substrate for 2 hours at 25° C. […] The IC50 value was determined from semi-logarithmic plots of enzyme inhibition versus inhibitor concentration, with a curve generated using a 4-parameter fit.

IMP-1 = IMP-1 (Serratia marcescens, UniProt P52699); assay: biochemical; type: biochemical; conditions: CCF2-FA substrate, 2 hours at 25° C; read-out: IMP-1 IC50
Description: as §7, §8

NDM-1 = NDM-1 (Klebsiella pneumoniae, UniProt C7C422); assay: biochemical; type: biochemical; conditions: CCF2-FA substrate, 2 hours at 25° C; read-out: NDM-1 IC50
Description: as §7, §8

Chain of IMP-1 (P52699 whole entry, looked up, species assumed): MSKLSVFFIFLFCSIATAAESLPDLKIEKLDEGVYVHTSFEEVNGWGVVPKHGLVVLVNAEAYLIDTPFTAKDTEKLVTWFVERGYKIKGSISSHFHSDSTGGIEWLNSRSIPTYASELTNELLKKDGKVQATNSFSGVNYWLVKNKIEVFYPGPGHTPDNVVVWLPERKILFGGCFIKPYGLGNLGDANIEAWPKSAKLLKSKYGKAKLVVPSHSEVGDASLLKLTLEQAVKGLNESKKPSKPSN
Chain of NDM-1 (C7C422 whole entry, looked up, species assumed): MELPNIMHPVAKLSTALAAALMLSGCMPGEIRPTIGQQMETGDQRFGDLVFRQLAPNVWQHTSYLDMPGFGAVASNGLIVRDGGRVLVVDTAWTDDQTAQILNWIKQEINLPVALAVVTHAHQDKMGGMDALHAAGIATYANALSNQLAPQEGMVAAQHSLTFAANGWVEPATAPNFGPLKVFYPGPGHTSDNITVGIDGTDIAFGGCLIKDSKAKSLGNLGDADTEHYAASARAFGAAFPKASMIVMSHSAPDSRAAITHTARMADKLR

SMILES	P. aeruginosa expressing IMP-1, efflux− (MB9799) MITC95 [1] [µM]	P. aeruginosa expressing IMP-1, efflux+ (MB9798) MITC95 [2] [µM]	Efflux ratio [2]	Serratia marcescens expressing IMP-1 (CL5741) MITC95 [3] [µM]	Klebsiella pneumoniae expressing VIM-1 (IHMA599644) MITC95 [4] [µM]	Escherichia coli expressing NDM-1 (CLB30016) MITC95 [5] [µM]	IC50 (VIM-1) [nM]	IC50 (IMP-1) [nM]	IC50 (NDM-1) [nM]
NS(=O)(=O)c1c(S(=O)(=O)C2CNC2)ccc(-c2cnc3ccccn23)c1-c1nn[nH]n1 [Example 9, 6-(Azetidin-3-ylsulfonyl)-3-(imidazo[1,2-a]pyridin-3-yl)-2-(2H-tetrazol-5-yl)benzenesulfonamide]	1.563	6.25	4.00	1.563	3.125	0.7813	0.375	0.913	0.332
Nc1ccc(-c2ccc([S+]([O-])C3CCNCC3)c(S(N)(=O)=O)c2-c2nn[nH]n2)cn1 (stereo not drawn) [Example 10, 3-(6-aminopyridin-3-yl)-6-(piperidin-4-ylsulfinyl)-2-(2H-tetrazol-5-yl)benzenesulfonamide]	3.125	6.25	2.00	6.25	6.25	6.25	6.46	27.3	3.2
Nc1nc2ccc(-c3ccc([S+]([O-])C4CCNCC4)c(S(N)(=O)=O)c3-c3nn[nH]n3)cc2[nH]1 (stereo not drawn) [Example 12, 3-(2-amino-3H-benzo[d]imidazol-5-yl)-6-(piperidin-4-ylsulfinyl)-2-(2H-tetrazol-5-yl)benzenesulfonamide]	3.125	25	8.00	6.25	6.25	6.25	4.36	130	4.06
Nc1nc2c(-c3ccc([S+]([O-])C4CNC4)c(S(N)(=O)=O)c3-c3nn[nH]n3)cccc2[nH]1 (stereo not drawn) [Example 13, 3-(2-amino-1H-benzo[d]imidazol-4-yl)-6-(azetidin-3-ylsulfinyl)-2-(2H-tetrazol-5-yl)benzenesulfonamide]	1.563	6.25	4.00	3.125	1.563	0.3906	6.61	50.8	0.619
Nc1nc2cccc(-c3ccc([S+]([O-])C4CCNCC4)c(S(N)(=O)=O)c3-c3nn[nH]n3)c2[nH]1 (stereo not drawn) [Example 14, 3-(2-amino-3H-benzo[d]imidazol-4-yl)-6-(piperidin-4-ylsulfinyl)-2-(2H-tetrazol-5-yl)benzenesulfonamide]	1.563	6.25	4.00	3.125	3.125	6.25	0.868	23.9	0.292
Cc1ccc(-c2ccc(S(=O)(=O)C3CNC3)c(S(N)(=O)=O)c2-c2nn[nH]n2)c2nc(N)[nH]c12 [Example 15, 3-(2-Amino-7-methyl-1H-benzo[d]imidazol-4-yl)-6-(azetidin-3-ylsulfonyl)-2-(2H-tetrazol-5-yl)benzenesulfonamide]	0.3906	0.3906	1.00	0.3906	0.7813	0.3906	0.206	0.613	0.0897
NS(=O)(=O)c1c(S(=O)(=O)C2CNC2)ccc(-c2cnc3cc[nH]c3c2)c1-c1nn[nH]n1 [Example 16, 6-(Azetidin-3-ylsulfonyl)-3-(1H-pyrrolo[3,2-b]pyridin-6-yl)-2-(2H-tetrazol-5-yl)benzenesulfonamide]	1.563	6.25	4.00	0.7813	3.125	0.3906	0.653	2.37	0.49
Nc1ccc2ncc(-c3ccc(S(=O)(=O)C4CNC4)c(S(N)(=O)=O)c3-c3nn[nH]n3)n2n1 [Example 17, 3-(6-Aminoimidazo[1,2-b]pyridazin-3-yl)-6-(azetidin-3-ylsulfonyl)-2-(2H-tetrazol-5-yl)benzenesulfonamide]	1.563	3.125	2.00	3.125	6.25	3.125	0.707	0.959	0.207
NCCS(=O)(=O)c1ccc(-c2cccc3c2nc(N)n3CC(F)(F)F)c(-c2nn[nH]n2)c1S(N)(=O)=O [Example 18, 3-(2-Amino-1-(2,2,2-trifluoroethyl)-1H-benzo[d]imidazol-4-yl)-6-((2-aminoethyl)sulfonyl)-2-(2H-tetrazol-5-yl)benzenesulfonamide]	1.563	3.125	2.00	3.125	3.125	1.563	0.361	0.227	0.442
Cn1c(N)nc2cccc(-c3ccc(S(=O)(=O)C4CNC4)c(S(N)(=O)=O)c3-c3nn[nH]n3)c21 [Example 19, 3-(2-Amino-1-methyl-1H-benzo[d]imidazol-7-yl)-6-(azetidin-3-ylsulfonyl)-2-(2H-tetrazol-5-yl)benzenesulfonamide]	1.563	6.25	4.00	1.563	1.563	0.7813	0.153	2.5	0.108
Nc1n[nH]c2cc(-c3ccc(S(=O)(=O)C4CNC4)c(S(N)(=O)=O)c3-c3nn[nH]n3)ccc12 [Example 20]	1.563	3.125	2.00	1.563	3.125	3.125	0.168	1.19	0.291
Nc1n[nH]c2c(-c3ccc(S(=O)(=O)C4CNC4)c(S(N)(=O)=O)c3-c3nn[nH]n3)cccc12 [Example 21, 3-(3-amino-1H-indazol-7-yl)-6-(azetidin-3-ylsulfonyl)-2-(2H-tetrazol-5-yl)benzenesulfonamide]	1.563	1.563	1.00	3.125	3.125	1.563	0.45	0.639	0.15

— patent US10227331B2 (priority 2015, dated 2019)
